What was measured:
glucocorticoid receptor = target: T1, glucocorticoid receptor (Homo sapiens, UniProt P04150); conditions: preclinical data (refs 8,9); cited from earlier work
T1 sequence (P04150 1-777): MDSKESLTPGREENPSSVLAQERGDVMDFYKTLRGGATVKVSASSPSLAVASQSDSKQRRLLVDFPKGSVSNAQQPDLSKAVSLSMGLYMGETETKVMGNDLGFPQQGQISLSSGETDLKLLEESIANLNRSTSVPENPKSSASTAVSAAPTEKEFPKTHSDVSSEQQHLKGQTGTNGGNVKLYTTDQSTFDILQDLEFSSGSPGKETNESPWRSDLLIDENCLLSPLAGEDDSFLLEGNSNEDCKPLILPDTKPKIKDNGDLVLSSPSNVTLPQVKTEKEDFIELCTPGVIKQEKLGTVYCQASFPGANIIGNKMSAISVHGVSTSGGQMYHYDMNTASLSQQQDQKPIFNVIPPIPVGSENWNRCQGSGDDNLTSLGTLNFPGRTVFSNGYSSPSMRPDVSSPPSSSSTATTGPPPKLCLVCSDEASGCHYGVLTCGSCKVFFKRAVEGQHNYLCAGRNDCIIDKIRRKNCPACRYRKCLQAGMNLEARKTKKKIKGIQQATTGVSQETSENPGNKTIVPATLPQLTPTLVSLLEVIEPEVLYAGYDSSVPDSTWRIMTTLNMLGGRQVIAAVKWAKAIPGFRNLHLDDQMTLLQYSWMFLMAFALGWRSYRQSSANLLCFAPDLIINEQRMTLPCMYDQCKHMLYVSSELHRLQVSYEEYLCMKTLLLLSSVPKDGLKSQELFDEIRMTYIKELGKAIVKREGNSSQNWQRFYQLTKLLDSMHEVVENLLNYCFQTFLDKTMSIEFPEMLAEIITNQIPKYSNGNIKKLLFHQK

[1] = Clinical trial, safety evaluation (ophthalmic and physical examinations, blood and urine); format: in vivo, patients
Excerpt: (§1) Clinical efficacy data is being obtained from evaluations of best-corrected logMAR visual acuity and standardized fluorescein angiograms. Clinical safety data obtained from general physical examinations, laboratory evaluations of blood and urine, and complete ophthalmic examinations, including indocyanine green angiography, continue to be periodically evaluated by the Independent Safety Committee overseeing this study. Clinical data from evaluations for safety and efficacy performed at Day 1-2, Week 2, Week 6, Month 3, and Month 6 following patient randomization and treatment are reported here.
Following completion of the Month 6 visit by all patients, the accumulated safety data were evaluated by the Independent Safety Committee overseeing this study. […] The most common ocular changes reported were changes in lens opacity using the Lens Opacity Classification System (LOCS) II, and included reports of nuclear color, nuclear opalescence, cortical, and posterior subcapsular changes. Cataracts are a common intercurrent disorder in this patient population, and the changes seen were documented in all treatment groups and in contralateral (untreated) eyes. The cataractous changes reported were described as mild and typically unrelated to treatment. The second most common ocular change, a decrease in vision (defined as a decrease of ≧4 logMAR lines from the previous visit), is also a common problem in this patient population. These vision decreases occurred in all treatment groups and in the contralateral eye. Other ocular changes (occurring with a frequency greater than 5%) were ptosis, ocular pain, subconjunctival hemorrhage, ocular pruritis, ocular burning/stinging, pupil disorders, foreign body sensation, ocular hyperemia, and abnormal vision. These changes were reported in all four treatment groups, in both treated eyes and contralateral eyes, were characterized as primarily mild, were generally not attributed to treatment, and were transient in nature. The single report of an IOP increase (≧10 mmHg) from Baseline occurred in a patient treated with anecortave acetate 30 mg and was attributed to intercurrent illness. Of the ocular changes reported, those most frequently attributed to study treatment were ptosis, ocular pain, subconjunctival hemorrhage, ocular pruritis, and ocular burning/stinging. These treatment-related events were mostly mild, transient, and seen within all four treatment groups.
The most common non-ocular changes from Baseline reported for this study were hypertension, peripheral edema, depression, and arthritis, none of which were attributed to treatment.

[2] = tested on: plasminogen activator inhibitor 1; conditions: cited from earlier work
[3] = Preclinical drug levels after slow-release depot adjacent to the posterior scleral surface; format: in vivo; conditions: data not shown
[4] = target: urokinase-like plasminogen activator (Homo sapiens, UniProt P00749); conditions: cited from earlier work
[5] = target: matrix metalloproteinase-3 (Homo sapiens, UniProt P08254); conditions: cited from earlier work
[6] = tested on: patients with subfoveal choroidal neovascularization (CNV) secondary to AMD; test: Clinical trial, best-corrected logMAR visual acuity after a single posterior juxtascleral administration; format: in vivo; conditions: for LogMAR Change 1 Line Improved, % of patients / LogMAR Change 1 Line Worsened, % of patients / LogMAR Change 2 Lines Worsened, % of patients / LogMAR Change No Change, % of patients / LogMAR Change ≧2 Lines Improved, % of patients / LogMAR Change ≧3 Lines Worsened (clinically significant vision loss), % of patients: Month 6 vs Baseline
Excerpt: (§2) This ongoing trial was initiated to compare the clinical efficacy of anecortave acetate versus placebo treatment for preservation (maintenance) of vision and inhibition of CNV lesion growth. Patients with a logMAR visual acuity of 0.3 (20/40 Snellen equivalent) to 1.2 (20/320 Snellen equivalent) and primary or recurrent subfoveal choroidal neovascularization (CNV) secondary to AMD with a lesion up to 30.48mm^2 (12 disc areas) in size were enrolled. At Baseline and follow-up visits, best-corrected logMAR visual acuity was obtained on all patients using guidelines previously established for the Early Treatment Diabetic Retinopathy Study. Patient lesion eligibility for this study was determined from standardized fluorescein angiograms at the Digital Angiography Reading Center (DARC) by certified Readers (trained retina specialists) prior to enrollment and treatment. The DARC also evaluated changes from Baseline in the fluorescein angiographic characteristics of the lesions in masked fashion. Each data point represents the average of at least two independent evaluations by DARC Readers. Because all angiographic data for this study is being collected using the same fimdus camera and digital camera systems and stored as uncompressed digital images, the actual lesion surface areas can be more closely approximated in mm^2 rather than requiring the disc area “best-fit” estimates previously used for film angiographic data.
The 128 patients in this double-masked, dose-response study were enrolled and treated between April 1999 and May 2001 by 18 participating sites in the US and EU. Prior to treatment, patients were enrolled and equally randomized to anecortave acetate sterile suspension for injection 30 mg (N=33), 15 mg (N=33), or 3 mg (N=32) or to placebo (vehicle, N=30). Masking of the clinical sites as to treatment group is being maintained in two ways. Study medication is masked by placing the treatment kits including study medication and supplies for the posterior juxtascleral administration in sealed opaque boxes identified by patient number only. The boxes were numbered sequentially at each clinical site and patients were assigned the next available sequential number upon enrollment. The randomization was built into the sequential numbering of the treatment kits and blocked within each site to maintain equal distribution across treatment assignments. Masking as to treatment group is also being maintained at each site by having an unmasked injecting investigator perform the treatments and a masked examining investigator perform the subsequent evaluations. Upon enrollment of each patient, anecortave acetate or placebo was administered behind the eye as a 0.5 mL posterior juxtascleral injection onto the outer surface of the sclera near the macula using a specially designed cannula. The cannula is described in commonly owned U.S. Pat. No. 6,413,245B1.
as §1
The primary efficacy outcome for this ongoing study is the mean change from Baseline in best-corrected logMAR visual acuity. […]

[7] = tested on: subfoveal CNV lesion secondary to AMD; test: Clinical trial, CNV lesion surface areas from standardized fluorescein angiograms (DARC); format: in vivo, patients; conditions: for inhibition of lesion growth versus placebo: Month 6
Excerpt: as §2, §1
The primary efficacy outcome for this ongoing study is the mean change from Baseline in best-corrected logMAR visual acuity. Secondary efficacy outcomes are: the percentage of patients with preservation or maintenance of vision (defined as loss of less than three logMAR lines [less than 15 logMAR letters] of visual acuity); the percentage of patients with clinically significant worsening of vision (defined as a loss of at least three logMAR lines [at least 15 logMAR letters] of visual acuity); the percentage of patients with severe vision loss (defined as a loss of at least six logMAR lines [at least 30 logMAR letters] of visual acuity); and changes in CNV lesion characteristics (defined as total lesion area, total CNV and total classic CNV).
All efficacy analyses were based on the intent-to-treat principle. All patients received the medication to which they were assigned, and were analyzed accordingly. Last-observation-carry-forward was used to impute missing values. Baseline comparisons were tested using analysis of variance (for continuous outcomes) and Pearson's chi square (for binary outcomes). Changes from baseline in visual acuity and lesion parameters were tested in a repeated measures analysis of variance model with appropriate contrasts for the 6-month comparisons. Comparisons of binary outcomes at Month 6 were evaluated using Pearson's chi-square tests. All analyses of ocular outcomes are based on changes in the study (i.e., treated) eye.

[8] = 3 mg single administration, n = 32
[9] = 15 mg single administration, n = 33
[10] = 15 mg single administration, n = 33, listed as Anec Acet
[11] = 30 mg single administration, n = 33

matrix metalloproteinase-3, sequence (P08254 100-477, species assumed): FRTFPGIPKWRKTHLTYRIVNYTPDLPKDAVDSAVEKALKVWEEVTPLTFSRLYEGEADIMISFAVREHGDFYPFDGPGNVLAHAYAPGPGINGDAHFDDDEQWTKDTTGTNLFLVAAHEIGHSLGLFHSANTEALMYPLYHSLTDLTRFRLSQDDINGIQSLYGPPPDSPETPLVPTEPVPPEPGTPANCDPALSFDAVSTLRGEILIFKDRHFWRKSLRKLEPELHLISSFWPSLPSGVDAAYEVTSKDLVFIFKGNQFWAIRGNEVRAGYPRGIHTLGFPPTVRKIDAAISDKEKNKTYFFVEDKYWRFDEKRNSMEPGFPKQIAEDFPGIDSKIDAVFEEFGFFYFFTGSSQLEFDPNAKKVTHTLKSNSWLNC

CC(=O)OCC(=O)[C@@]1(O)CC[C@H]2[C@@H]3CCC4=CC(=O)CC[C@]4(C)C3=CC[C@@]21C [anecortave acetate, 4,9(11)-pregnadien-17α,21-diol-3,20 dione-21 acetate]
corticosteroid activity (glucocorticoid receptor): no measurable corticosteroid activity
reports of IOP increase (≧10 mmHg) from Baseline ([1]; 30 mg, attributed to intercurrent illness): single report
changes in blood chemistry, hematology, or urinalysis ([1]; all doses, 6 months): No treatment-related changes
safety evaluation by the Independent Safety Committee ([1]; all doses, after Month 6 visit): no clinically relevant medication-related or administration-related safety concerns were identified
ocular corticosteroid side effects (elevated intraocular pressure or accelerated cataract progression) ([1]; clinical study, at least 6 months exposure): no clinical evidence of ocular corticosteroid side effects
effect on plasminogen activator inhibitor 1 [2]: upregulates
duration of therapeutic drug levels in the adjacent choroid and retina [3]: up to 6 months
effect on urokinase-like plasminogen activator [4]: inhibits
effect on matrix metalloproteinase-3 [5]: inhibits
LogMAR Change 1 Line Improved, % of patients [6, 8]: 0%
LogMAR Change 1 Line Worsened, % of patients [6, 8]: 12.5%
LogMAR Change 2 Lines Worsened, % of patients [6, 8]: 18.8%
LogMAR Change No Change, % of patients [6, 8]: 37.5%
LogMAR Change ≧2 Lines Improved, % of patients [6, 8]: 6%
LogMAR Change ≧3 Lines Worsened (clinically significant vision loss), % of patients [6, 8]: 25.0%
LogMAR Change ≧2 Lines Improved, % of patients ([6]; 3 mg single administration, n = 32, listed as Anec Acet): 6.3%
<6 Lines Worse, % of patients ([6]; 3 mg, Month 6): 78.13%
Severe Vision Loss, ≧6 Lines Worse, % of patients ([6]; 3 mg, Month 6): 21.88%
mean change at Month 6 from Baseline in logMAR visual acuity, versus placebo ([6]; 3 mg, statistical significance not achieved): Trends also favor treatment
average final logMAR value ([6]; 15 mg single administration, Month 6 (20/125 Snellen equivalent; Baseline 0.73)): 0.81 logMAR
LogMAR Change 1 Line Improved, % of patients [6, 9]: 3.0%
LogMAR Change 1 Line Worsened, % of patients [6, 9]: 12.1%
LogMAR Change 2 Lines Worsened, % of patients [6, 9]: 30.3%
LogMAR Change No Change, % of patients [6, 9]: 24.2%
LogMAR Change ≧2 Lines Improved, % of patients [6, 9]: 18%
LogMAR Change ≧3 Lines Worsened (clinically significant vision loss), % of patients [6, 9]: 12%
LogMAR Change ≧2 Lines Improved, % of patients [6, 10]: 18.2%
LogMAR Change ≧3 Lines Worsened (clinically significant vision loss), % of patients [6, 10]: 12.1%
mean change from Baseline logMAR visual acuity ([6]; 15 mg single treatment, Month 6): +0.08 logMAR score
<6 Lines Worse, % of patients ([6]; 15 mg, Month 6): 96.97%
Severe Vision Loss, ≧6 Lines Worse, % of patients ([6]; 15 mg, Month 6): 3.03%
percentage of patients with preservation of vision (decrease of less than three logMAR lines from Baseline) ([6]; 15 mg, Month 6, overall analysis): 88%
percentage of patients with preservation of vision (decrease of less than three logMAR lines from Baseline) ([6]; 15 mg, Month 6, subgroup with predominantly classic CNV lesion): 92%
mean change at Month 6 from Baseline in logMAR visual acuity, versus placebo ([6]; 15 mg, p=0.0032): statistically superior to placebo treatment
LogMAR Change 1 Line Improved, % of patients [6, 11]: 12.1%
LogMAR Change 1 Line Worsened, % of patients [6, 11]: 15.2%
LogMAR Change 2 Lines Worsened, % of patients [6, 11]: 15.2%
LogMAR Change No Change, % of patients [6, 11]: 30.3%
LogMAR Change ≧2 Lines Improved, % of patients [6, 11]: 3%
LogMAR Change ≧3 Lines Worsened (clinically significant vision loss), % of patients [6, 11]: 24.2%
LogMAR Change ≧2 Lines Improved, % of patients ([6]; 30 mg single administration, n = 33, listed as Anec Acet): 3.0%
<6 Lines Worse, % of patients ([6]; 30 mg, Month 6): 75.76%
Severe Vision Loss, ≧6 Lines Worse, % of patients ([6]; 30 mg, Month 6): 24.24%
mean change at Month 6 from Baseline in logMAR visual acuity, versus placebo ([6]; 30 mg, statistical significance not achieved): Trends also favor treatment
inhibition of lesion growth versus placebo ([7]; 3 mg): trend favoring
inhibition of total CNV surface area growth, percent change from Baseline, versus placebo ([7]; 15 mg, Month 6, p=0.0001): statistically superior to placebo treatment
inhibition of total lesion surface area growth, percent change from Baseline, versus placebo ([7]; 15 mg, Month 6, p=0.0005): statistically superior to placebo treatment
inhibition of total classic CNV surface area growth, percent change from Baseline, versus placebo ([7]; 15 mg, Month 6, p=0.0008): statistically superior to placebo treatment
inhibition of lesion growth versus placebo ([7]; 30 mg): trend favoring

— patent publication US20040127472A1, “Use of anecortave acetate for the protection of visual acuity in patients with age related macular degeneration” (priority 2002, published 2004)
